Experimental data as given in patent US9682966B2, “Kappa opioid ligands” (The Scripps Research Institute, priority 2012, dated 2017).

Target: kappa opioid receptor (OPRK1) (Homo sapiens (Human), UniProt P41145)
Experiment: OPRK1 antagonist assay (b-arrestin-2-TEV / b-lactamase reporter, EC80 U-50488 challenge)
Assay type: cell-based
Conditions: OPRK1 antagonist assay vs EC80 U-50488

Sequence of kappa opioid receptor (OPRK1) (P41145 whole entry): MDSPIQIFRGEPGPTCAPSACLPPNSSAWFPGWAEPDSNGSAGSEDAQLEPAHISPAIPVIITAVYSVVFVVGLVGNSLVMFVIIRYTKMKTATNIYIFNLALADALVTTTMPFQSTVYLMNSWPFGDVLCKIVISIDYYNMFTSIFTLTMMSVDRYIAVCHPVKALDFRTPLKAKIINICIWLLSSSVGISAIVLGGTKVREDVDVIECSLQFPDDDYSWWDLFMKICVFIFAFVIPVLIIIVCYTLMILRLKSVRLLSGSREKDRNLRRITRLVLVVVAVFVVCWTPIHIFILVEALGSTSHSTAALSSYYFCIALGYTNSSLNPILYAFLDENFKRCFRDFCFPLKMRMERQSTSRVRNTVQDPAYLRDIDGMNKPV

Row | SMILES | IC50 [nM]
1 | Cc1cc(C)c2nc(N3CCC(NCC(C)C)CC3)c(-c3nc(C)no3)cc2c1 [compound 364] | 18
2 | COC1CN(c2nc3c(C)cc(C)cc3cc2-c2nc(C)no2)CCC1NCC(C)C (stereo not drawn) [compound 365] | 8
3 | CO[C@H]1CN(c2ncc(C)cc2-n2ccc(C)n2)CC[C@H]1NC1CCCCC1 [compound 366] | 19
4 | Cc1ccc2nc(N3CCC(NC4CCCCCC4)CC3)c(-c3nc(C)no3)cc2c1 [compound 367] | 2
5 | Cc1ccc2nc(N3CCC(NC4CCCCC4CO)CC3)c(-c3nc(C)no3)cc2c1 (stereo not drawn) [compound 368] | 7
6 | Cc1ccc2nc(N3CCC(NC4CCCC4)CC3)c(-c3nc(C)no3)cc2c1 [compound 369] | 2
7 | Cc1ccc2nc(N3CCC(NC4CCC4)CC3)c(-c3nc(C)no3)cc2c1 [compound 370] | 37
8 | Cc1ccc2nc(N3CCC(NC4CCC[C@@H]4O)CC3)c(-c3nc(C)no3)cc2c1 (stereo partly drawn) [compound 372] | 15
9 | CCc1cnc(N2CCC(NC3CCCCC3)C(OC)C2)c(-c2nc(C)no2)c1 (stereo not drawn) [compound 379] | 525
10 | COC1CN(c2ncc(C)cc2-c2cc(C)no2)CCC1NC1CCCCC1 (stereo not drawn) [compound 380] | 128
11 | Cc1cnc(N2CCC(NCC(C)C)CC2)c(-c2cc(C)no2)c1 [compound 381] | 860
12 | CO[C@@H]1CN(c2ncc(C)cc2-n2ccc(C)n2)CC[C@@H]1NC1CCCCC1 [compound 383] | 1160
13 | Cc1ccc(-c2nc(C)no2)c(N2CCC(NC3CCCCC3)C(CO)C2)n1 (stereo not drawn) [compound 386] | 31
14 | Cc1ccc(-c2nc(C)no2)c(N2CCC(NC3CCCCC3)CC2)n1 [compound 387] | 89
15 | Cc1cnc(N2CCC(NC3CCCCC3)CC2)c(-c2nc(C)no2)c1 [compound 388] | 20
16 | Cc1cnc(N2CCC(NC3CCOCC3)CC2)c(-c2nc(C)no2)c1 [compound 389] | 153
17 | CCc1noc(-c2cc(C)cnc2N2CCC(NC3CCCCC3)C(OC)C2)n1 (stereo not drawn) [compound 391] | 105
18 | Cc1cnc(N2CCC(NCC(C)C)CC2)c(-c2nc(C)no2)c1 [compound 393] | 346
19 | Cc1noc(-c2cc(C)c(C)nc2N2CCC(NCC(C)C)CC2)n1 [compound 394] | 161
20 | CO[C@H]1CN(c2ncc(C)cc2-c2noc(C)n2)CC[C@H]1NC1CCCCC1 [compound 395] | 49
21 | Cc1cnc(N2CCC(NC3CCOCC3)CC2)c(-c2nc(C3CC3)no2)c1 [compound 396] | 2260
22 | Cc1cnc(N2CCC(NCC(C)C)CC2)c(-c2nc(C3CC3)no2)c1 [compound 397] | 1280
23 | CO[C@H]1CN(c2ncc(C)cc2-c2nc(C3CC3)no2)CC[C@H]1NC1CCCCC1 [compound 398] | 18

Row | SMILES | IC50 [nM]
24 | CO[C@@H]1CN(c2ncc(C)cc2-c2noc(C)n2)CC[C@@H]1NC1CCCCC1 [compound 399] | 953
25 | Cc1cc(C(=O)N(C)C)c(N2CCC(NC3CCCCC3)CC2)nn1 [compound 400] | 279
26 | CCOC(=O)CCNC1CCN(c2nc3ccc(C)cc3cc2-c2nc(C)no2)CC1 [compound 407] | 341
27 | Cc1ccc2nc(N3CCC(NCC(C)(C)O)CC3)c(-c3noc(C)n3)cc2c1 [compound 412] | 476
28 | Cc1ccc2nc(N3CCC(NCC(C)C)CC3)c(-c3noc(C)n3)cc2c1 [compound 413] | 22
29 | Cc1ccc2nc(N3CCC(NC4CCCC4)CC3)c(-c3noc(C)n3)cc2c1 [compound 414] | 9
30 | Cc1ccc2nc(N3CCC(NC4CCCCCC4)CC3)c(-c3noc(C)n3)cc2c1 [compound 415] | 3
31 | CCC(CC)NC1CCN(c2nc3ccc(C)cc3cc2-c2noc(C)n2)CC1 [compound 416] | 4
32 | Cc1ccc2nc(N3CCC(NC4(C)CCOCC4)CC3)c(-c3noc(C)n3)cc2c1 [compound 417] | 105
33 | Cc1ccc2nc(N3CCC(NC4CCC[C@@H]4O)CC3)c(-c3noc(C)n3)cc2c1 (stereo partly drawn) [compound 418] | 50
34 | Cc1ccc2nc(N3CCC(NC4CCCOC4)CC3)c(-c3noc(C)n3)cc2c1 (stereo not drawn) [compound 419] | 2
35 | Cc1cc(-c2noc(C)n2)c(N2CCC(NC3CCCCC3)CC2)nn1 [compound 420] | 3
36 | Cc1ccc2nc(N3CCC(NC[C@@H](C)O)CC3)c(-c3noc(C)n3)cc2c1 [compound 423] | 191
37 | Cc1ccc2nc(N3CCC(NC[C@H](C)O)CC3)c(-c3noc(C)n3)cc2c1 [compound 424] | 422
38 | CO[C@H]1CN(c2nc(C)ccc2-c2ccc(C)nn2)CC[C@H]1NC1CCCCC1 [compound 426] | 1970
39 | CO[C@@H]1CN(c2nc(C)ccc2-c2ccc(C)nn2)CC[C@@H]1NC1CCCCC1 [compound 427] | 4600
40 | Cc1noc(-c2ccc(CO)nc2N2CCC(NC3CCCCC3)CC2)n1 [compound 428] | 101
41 | CO[C@H]1CN(c2nc(C)ccc2-c2noc(C)n2)CC[C@H]1NC1CCCCC1 [compound 429] | 214
42 | CO[C@@H]1CN(c2nc(C)ccc2-c2noc(C)n2)CC[C@@H]1NC1CCCCC1 [compound 430] | 1000
43 | Cc1cc(-c2noc(C)n2)c(N2CCC(NCC(C)C)CC2)nn1 [compound 431] | 22
44 | Cc1ccc2nc(N3CCC(NC4CCOC4)CC3)c(-c3noc(C)n3)cc2c1 (stereo not drawn) [compound 432] | 22
45 | Cc1ccc2nc(N3CCC(NC4CCCCC4)CC3)c(-c3ccc(C)nn3)cc2c1 [compound 438] | 75
46 | CO[C@H]1CN(c2nc3ccc(C)cc3cc2-c2ccc(C)nn2)CC[C@H]1NC1CCCCC1 [compound 439] | 231

Row | SMILES | IC50 [nM]
47 | Cc1ccc2nc(N3CCC(NC4CCOCC4)CC3)c(-c3ccc(C)nn3)cc2c1 [compound 441] | 392
48 | Cc1ccc2nc(N3CCC(NCC(C)C)CC3)c(-c3ccc(C)nn3)cc2c1 [compound 442] | 324
49 | Cc1ccc2nc(N3CCC(NC4CCCC[C@@H]4O)CC3)c(-c3ccc(C)nn3)cc2c1 (stereo partly drawn) [compound 443] | 33
50 | Cc1ccc2nc(N3CCC(NC4CCC[C@@H]4O)CC3)c(-c3ccc(C)nn3)cc2c1 (stereo partly drawn) [compound 444] | 634
51 | Cc1ccc2nc(N3CCC(NC4CCCC4)CC3)c(-c3ccc(C)nn3)cc2c1 [compound 445] | 55
52 | Cc1nc(-c2c(N3CCC(NC4CCCC[C@@H]4O)CC3)nc3ccccc3c2C)no1 (stereo partly drawn) [compound 446] | 72
53 | Cc1nc(-c2c(N3CCC(NC4CCOCC4)CC3)nc3ccccc3c2C)no1 [compound 447] | 1150
54 | Cc1nc(-c2c(N3CCC(NCC(C)C)CC3)nc3ccccc3c2C)no1 [compound 448] | 226
55 | CCC(CC)NC1CCN(c2nc3ccccc3c(C)c2-c2noc(C)n2)CC1 [compound 449] | 129
56 | Cc1ccc2nc(N3CCC(NC4CCCCC4O)CC3)c(-c3ccc(C)nn3)cc2c1 (stereo not drawn) [compound 451] | 94
57 | Cc1cc(-c2noc(C)n2)c(N2CCC(NC3CCCC[C@@H]3O)CC2)nn1 (stereo partly drawn) [compound 452] | 47
58 | CCc1ccc(-c2cc3cc(C)ccc3nc2N2CCC(NC3CCCC[C@@H]3O)CC2)nn1 (stereo partly drawn) [compound 454] | 783
59 | CCc1ccc(-c2cc3cc(C)ccc3nc2N2CCC(NC3CCCCC3)CC2)nn1 [compound 455] | 1640
60 | CO[C@H]1CN(c2nnc(C)cc2-c2nc(C3CC3)no2)CC[C@H]1NC1CCCCC1 [compound 456] | 6
61 | Cc1cc(-c2nc(C3CC3)no2)c(N2CCC(NC3CCCCC3)CC2)nn1 [compound 457] | 24
62 | Cc1ccc2nc(N3CCC(NC4CCOC4)CC3)c(-c3ccc(C)nn3)cc2c1 (stereo not drawn) [compound 458] | 440
63 | CO/N=C/c1cc2cc(C)ccc2nc1N1CCC(NC2CCCCC2)CC1 [compound 459] | 15
64 | CCO/N=C/c1cc2cc(C)ccc2nc1N1CCC(NC2CCCCC2)CC1 [compound 460] | 141
65 | COC1CN(c2nc3ccccc3cc2-c2cccnn2)CCC1NC1CCCCC1 (stereo not drawn) [compound 463] | 54
66 | c1cnnc(-c2cc3ccccc3nc2N2CCC(NC3CCCCC3)CC2)c1 [compound 464] | 87
67 | Cc1nc(-c2cc3cc(F)ccc3nc2N2CCC(NC3CCCCC3)CC2)no1 [compound 489] | 616
68 | CCC(CC)NC1CCN(c2nc3ccc(F)cc3cc2-c2noc(C)n2)CC1 [compound 490] | 248
69 | Cc1ccc2nc(N3CCC(N[C@H](C)C(C)C)CC3)c(-c3noc(C)n3)cc2c1 [compound 524] | 57
